The text below walks through data of patent publication US20070193894A1, “Container for constituting a formulation in liquid form” (IDD-EAL MANUFACTURING COMPANY LIMITED, priority 2004, published 2007).

The nature of data set [1]: Acetaminophen formulation blends tested in different volumes of water and containers. As to conditions: conclusion of Example 13. Type of data set: physicochemical. On the procedure: Blends of the above components were tested in three different volumes df water: 20 ml, 40 ml and 80 ml in different containers.
In the case of the second formulation a single volume (20 ml) in two different containers were investigated, namely a small bottle and a sampling container with cap.

Data set [2] is described as follows: Ibuprofen formulation test: behaviour in water. The conditions noted are these: conclusion of Example 14. Type of data set: physicochemical. Here is the method: Two volumes of water were tested, namely 20 ml and 40 ml in two different containers, namely a small bottle and a beaker. One volume of water was tested, namely 20 ml, and a single container, namely a small bottle. In the case of the above two formulations, the behaviour of ibuprofen in water was tested and the generation of bubbles was optimised by increasing the quantity of citric acid, sodium bicarbonate and potassium hydrogen carbonate.

For the compound `CC(=O)Nc1ccc(O)cc1` [acetaminophen, Acetaminophen], in data set [1], the “remaining in suspension in water” value is on record as “does not remain in suspension” and the stability in water entry is reported as “not stable in water”.

As for `CC(C)Cc1ccc(C(C)C(=O)O)cc1` (stereo not drawn) [ibuprofen, 4-Isobutyl-Alpha-Methylphenylacetic Acid (Ibuprofen)], in data set [2], the “remaining in suspension in water” value is “does not remain in suspension” and the stability in water result was “not stable in water”.
